From US6368604B1, “Non-pyrogenic derivatives of lipid A” (priority 1997, dated 2002)

Columns and labels:
human PBMCs [1] = assay: Human PBMC activation assay: TNFα, IL-1β, IL-6 in culture supernatants by capture ELISA; type: cell-based; details: human PBMC culture supernatants after stimulation, 1 μg/ml, 8 hr
Procedure: 50 ml of whole blood is mixed with an equal volume of RPMI (Life Technologies) and PBMCs are isolated by density gradient using lymphocyte separation medium according to the manufacturer's directions (Organon). The PBMCs are washed twice with RPMI then resuspended in 6 ml of ice cold sterile water and placed on ice for 30 sec to lyse the erythrocytes. The osmolarity is adjusted by adding 2 ml of ice cold 3.5% (w/v) NaCl; the PBMCs are harvested by centrifugation, washed with RPMI and resuspended in complete medium (CM; RPMI containing pyruvate, glutamine, PenStrep, and 10% endotoxin-free human AB serum (Life Technologies) at a density of 6×10^6 PBMCs/ml. CM containing the preparations to be assayed are placed into duplicate wells of a 96-well flat bottom culture late (Costar) at double the target final concentration. An equal volume of CM containing the PBMCs then is added to these wells and the culture plates are incubated at 37° C. in 5% CO2 for 8 hr. The supernatants are then removed and stored at […] Quantitation of TNFα, IL-1β, IL-6, MIP-1α, MIP-1β and RANTES in these culture supernatants is achieved by capture ELISA (R&D Systems).
(§1) Quantitation of TNFα, IL-1β, IL-6, MIP-1α and MIP-1β in these culture supernatants was achieved by capture ELISA (R&D Systems).
This observation was reproduced using four unrelated PBMC donors and two separate LPS preparations. […]

human PBMCs [2] = assay: LPS antagonist activity: TNFα from human PBMCs stimulated with W3110 LPS mixed with test preparation; type: cell-based; details: 1 μg/ml mixed with W3110 LPS 10 ng/ml, 8 hr
Procedure: as §1
W3110 LPS (also cultured at 37° C.) from 1 ng/ml to 100 ng/ml alone and W3110 LPS (10 ng/ml) mixed with synthetic lipid IVA (1 μg/ml) were used as controls.

human PBMCs [3] = assay: β chemokine (MIP-1α, MIP-1β, RANTES) secretion from human PBMCs, dose and time course, capture ELISA; type: cell-based
HIV-1BAL = assay: Replication of HIV-1BAL in human PBMC-derived monocytes (p24 ELISA); type: cell-based; details: 1000, 100 and 10 ng/ml for 24 hours before infection; p24 after a further 19 days
Procedure: FIG. 5. Lipid A antagonist, lipid IVA, inhibits HIV replication. PBMCs were treated with synthetic lipid IVA at 1000 ng/ml, 100 ng/ml and 10 ng/ml for 24 hours. The treated cells were subsequently infected with 0.200 ng of HIV-1BAL (Cocchi et al, supra) for 2 hours, washed twice and incubated for a further 19 days. Culture supernatants were then collected and the level of p24 in these supernatants was measured by ELISA (R&D Systems). […] Figure Legend:
To investigate the utility of the aforementioned findings, we investigated whether commercially available synthetic lipid IVA (ICN Inc.) suppressed the replication of HIV-1BAL in human PBMC-derived monocytes. Therefore, PBMCs were obtained as outlined in Section 6, see above, and placed into 12 well culture flat-bottom plate and incubated in CM (see example 1) for […] at 37° C. in 5% Co2. Non-adherent cells were removed and the cells were given fresh media every 2 days. After 6 days, the adherent PBMCs were treated with synthetic lipid IVA at 1000 ng/ml, 100 ng/ml and 10 ng/ml for 24 hours. […] Culture supernatants were then collected and the level of p24 in these supernatants was measured by ELISA (R&D Systems).
PBMC-derived monocytes were obtained as outlined in Section 8, see above. […] Culture supernatants were then collected and the level of p24 in these supernatants was measured by ELISA (R&D Systems).

mice = details: cited from earlier work
HIV-1 = details: in vivo; cited from earlier work

CCCCCCCCCCC[C@@H](O)CC(=O)N[C@H]1[C@H](OC[C@H]2O[C@H](OP(=O)(O)O)[C@H](NC(=O)C[C@H](O)CCCCCCCCCCC)[C@@H](OC(=O)C[C@H](O)CCCCCCCCCCC)[C@@H]2O)O[C@H](CO)[C@@H](OP(=O)(O)O)[C@@H]1OC(=O)C[C@H](O)CCCCCCCCCCC [Lipid IVA]
IL-1β (human PBMCs [1]): 13 ± 1 pg/mL
IL-6 (human PBMCs [1]): 7581 ± 20 pg/mL
TNFα (human PBMCs [2]): <30 pg/mL
induction of β chemokines (human PBMCs [3]): WITHOUT INDUCING […] OF β CHEMOKINES
replication of HIV-1BAL (p24 in supernatants) (HIV-1BAL): suppresses the replication of HIV-1BAL in a dose-dependent manner

2,3-diacyl-glucosamine-1-phosphate [lipid X]
pyrogenicity / toxicity in mice (mice): non-pyrogenic

CCCCCC/C=C/CCCCCC(=O)O[C@H](CCCCCCCCCCC)CC(=O)NC1C(OCC2OC(OP(=O)(O)O)C(NC(=O)CC(=O)CCCCCCCCCCC)C(OC(=O)C[C@H](O)CCCCCCC)C2O)OC(CO)C(OP(=O)(O)O)C1OC(=O)C[C@H](O)CCCCCCC (some centres unmarked) [RsDPLA, R. sphaeroides diphosphoryl lipid A]
level of RANTES after stimulation (human PBMCs [3]; human PBMCs): not significantly elevated
MIP-1α secretion (human PBMCs [3]; human PBMCs, various doses): stimulated the secretion of MIP-1α and MIP-1β in a dose-dependent manner
MIP-1β secretion (human PBMCs [3]; human PBMCs, various doses): stimulated the secretion of MIP-1α and MIP-1β in a dose-dependent manner
time of peak production of chemokines (MIP-1α, MIP-1β) after stimulation (human PBMCs [3]; supernatants 8, 16, 24 and 48 hr after stimulation): 24 h

Cc1cn([C@H]2C[C@H](N=[N+]=[N-])[C@@H](CO)O2)c(=O)[nH]c1=O [AZT, 3′-azido-2′,3′-dideoxythymidine]
effect on viral load (HIV-1): about 1 log reduction
